Source: PubChem BioAssay AID2060513 (Molecular Pharmacology Branch, DTP, NCI, 2025)

Test system: 299254-011-R-J1-PDC complex spheroids viability
Experiment: Anticancer human tumor 299254-011-R-J1-PDC patient-derived melanoma cell line growth inhibition [GQUAD]
Conditions: for IC50: curve of first compound; for viability, T/C: stronger effect = lower value
Method in brief: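 Tumor cells were grown as complex spheroids with HUVEC endothelial cells and mesenchymal stem cells as stroma. G-quadruplex stabilizers were combined with targeted agents over half-log dilutions from near the clinical Cmax, or from 10 microM.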

[1] = second compound 0.0316 µM, first compound 0.000999 µM
[2] = second compound 0.0316 µM, first compound 0.00316 µM
[3] = second compound 0.0316 µM, first compound 0.00999 µM
[4] = second compound 0.0316 µM, first compound 0.0316 µM
[5] = second compound 0.0316 µM, first compound 0.0999 µM
[6] = second compound 0.0316 µM, first compound 0.316 µM
[7] = second compound 0.1 µM, first compound 0.000999 µM
[8] = second compound 0.1 µM, first compound 0.00316 µM
[9] = second compound 0.1 µM, first compound 0.00999 µM
[10] = second compound 0.1 µM, first compound 0.0316 µM
[11] = second compound 0.1 µM, first compound 0.0999 µM
[12] = second compound 0.1 µM, first compound 0.316 µM
[13] = second compound 0.316 µM, first compound 0.000999 µM
[14] = second compound 0.316 µM, first compound 0.00316 µM
[15] = second compound 0.316 µM, first compound 0.00999 µM
[16] = second compound 0.316 µM, first compound 0.0316 µM
[17] = second compound 0.316 µM, first compound 0.0999 µM
[18] = second compound 0.316 µM, first compound 0.316 µM
[19] = second compound 1 µM, first compound 0.000999 µM
[20] = second compound 1 µM, first compound 0.00316 µM
[21] = second compound 1 µM, first compound 0.00999 µM
[22] = second compound 1 µM, first compound 0.0316 µM
[23] = second compound 1 µM, first compound 0.0999 µM
[24] = second compound 1 µM, first compound 0.316 µM
[25] = second compound 3.16 µM, first compound 0.000999 µM
[26] = second compound 3.16 µM, first compound 0.00316 µM
[27] = second compound 3.16 µM, first compound 0.00999 µM
[28] = second compound 3.16 µM, first compound 0.0316 µM
[29] = second compound 3.16 µM, first compound 0.0999 µM
[30] = second compound 3.16 µM, first compound 0.316 µM
[31] = second compound 10 µM, first compound 0.000999 µM
[32] = second compound 10 µM, first compound 0.00316 µM
[33] = second compound 10 µM, first compound 0.00999 µM
[34] = second compound 10 µM, first compound 0.0316 µM
[35] = second compound 10 µM, first compound 0.0999 µM
[36] = second compound 10 µM, first compound 0.316 µM
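Further: spheroids exposed to the agents for seven days before readout.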
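Wherever viability, T/C is given: percent viability relative to DMSO vehicle control wells = 100%.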

`CC[C@@]1(O)C(=O)OCc2c1cc1n(c2=O)Cc2cc3c(CN(C)C)c(O)ccc3nc2-1` + Cc1[nH]c2ccc(F)cc2c1-c1nc2c3cccnc3c3ncccc3c2[nH]1 showed an IC50 (second compound 0.0316 µM) of over 316 nM, an IC50 (second compound 0.1 µM) of over 316 nM and an IC50 (second compound 0.316 µM) of over 316 nM. It also gave an IC50 (second compound 1 µM) of over 316 nM, an IC50 (second compound 3.16 µM) of over 316 nM and an IC50 (second compound 10 µM) of over 316 nM. For the same molecule, the viability, T/C [1] was 119%, the viability, T/C [2] was 92.6% and the viability, T/C [3] was 102%. It also gave a viability, T/C [4] of 85.8%, a viability, T/C [5] of 86% and a viability, T/C [6] of 79.4%. It also gave a viability, T/C [7] of 115%, a viability, T/C [8] of 105% and a viability, T/C [9] of 112%. The viability, T/C [10] was 78.2%, the viability, T/C [11] was 109% and the viability, T/C [12] was 74.8%. It also gave a viability, T/C [13] of 86.2%, a viability, T/C [14] of 88.3% and a viability, T/C [15] of 89.2%. The viability, T/C [16] was 106%, the viability, T/C [17] was 93.2% and the viability, T/C [18] was 77.7%. It also gave a viability, T/C [19] of 97%, a viability, T/C [20] of 103% and a viability, T/C [21] of 98.2%. The viability, T/C [22] was 101%, the viability, T/C [23] was 87.2% and the viability, T/C [24] was 86.9%. The viability, T/C [25] was 87.2%, the viability, T/C [26] was 116% and the viability, T/C [27] was 95%. For the same molecule, the viability, T/C [28] was 111%, the viability, T/C [29] was 96.8% and the viability, T/C [30] was 101%. It also gave a viability, T/C [31] of 95%, a viability, T/C [32] of 97.8% and a viability, T/C [33] of 85.1%. The viability, T/C [34] was 85.3%, the viability, T/C [35] was 116% and the viability, T/C [36] was 79.8%.

`Cc1[nH]c2ccccc2c1CCNCc1ccc(/C=C/C(=O)NO)cc1` + Cc1[nH]c2ccc(F)cc2c1-c1nc2c3cccnc3c3ncccc3c2[nH]1 showed an IC50 (second compound 0.0316 µM) of 123 nM, an IC50 (second compound 0.1 µM) of 128 nM and an IC50 (second compound 0.316 µM) of 198 nM. It also gave an IC50 (second compound 1 µM) of 187 nM, an IC50 (second compound 3.16 µM) of 181 nM and an IC50 (second compound 10 µM) of 163 nM. For the same molecule, the viability, T/C [1] was 95.9%, the viability, T/C [2] was 81.8% and the viability, T/C [3] was 92.5%. The viability, T/C [4] was 81.3%, the viability, T/C [5] was 56.3% and the viability, T/C [6] was 21.5%. The viability, T/C [7] was 95.3%, the viability, T/C [8] was 119% and the viability, T/C [9] was 81.8%. The viability, T/C [10] was 71.1%, the viability, T/C [11] was 64.5% and the viability, T/C [12] was 22%. For the same molecule, the viability, T/C [13] was 88.1%, the viability, T/C [14] was 99.4% and the viability, T/C [15] was 95.8%. The viability, T/C [16] was 77.6%, the viability, T/C [17] was 86.3% and the viability, T/C [18] was 25.5%. It also gave a viability, T/C [19] of 96.1%, a viability, T/C [20] of 87.4% and a viability, T/C [21] of 93.7%. The viability, T/C [22] was 89%, the viability, T/C [23] was 81.8% and the viability, T/C [24] was 23.6%. For the same molecule, the viability, T/C [25] was 93.8%, the viability, T/C [26] was 79.2% and the viability, T/C [27] was 86.6%. It also gave a viability, T/C [28] of 85.8%, a viability, T/C [29] of 74.8% and a viability, T/C [30] of 26.7%. It also gave a viability, T/C [31] of 78.2%, a viability, T/C [32] of 105% and a viability, T/C [33] of 94.6%. The viability, T/C [34] was 84.1%, the viability, T/C [35] was 74.8% and the viability, T/C [36] was 17.9%.
